In test [1] the test system is LXR. The note with it: oral administration, hamsters; cited from earlier work.
The subject of test [2] is LXR. To be noted: oral administration, mice; cited from earlier work.
Test [3] concerns the target T1, BD-VDR><AD-TRβ interaction (Mus musculus, UniProt P48281).
T1 construct: expressed in transfected cells; host or cells: yeast
T1 sequence (P48281 1-422): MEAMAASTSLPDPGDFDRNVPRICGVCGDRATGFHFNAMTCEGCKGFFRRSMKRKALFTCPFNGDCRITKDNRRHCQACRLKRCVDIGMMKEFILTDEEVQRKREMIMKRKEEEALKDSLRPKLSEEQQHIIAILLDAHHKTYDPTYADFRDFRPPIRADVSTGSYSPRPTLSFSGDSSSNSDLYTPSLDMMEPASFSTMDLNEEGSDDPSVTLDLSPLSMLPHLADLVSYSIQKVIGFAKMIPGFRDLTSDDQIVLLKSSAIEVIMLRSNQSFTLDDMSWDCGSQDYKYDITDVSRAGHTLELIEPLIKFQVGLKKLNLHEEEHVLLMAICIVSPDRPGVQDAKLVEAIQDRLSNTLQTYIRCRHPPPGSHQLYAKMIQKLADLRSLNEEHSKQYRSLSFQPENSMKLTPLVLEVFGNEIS
T1 sequence (P10828 1-461 partner): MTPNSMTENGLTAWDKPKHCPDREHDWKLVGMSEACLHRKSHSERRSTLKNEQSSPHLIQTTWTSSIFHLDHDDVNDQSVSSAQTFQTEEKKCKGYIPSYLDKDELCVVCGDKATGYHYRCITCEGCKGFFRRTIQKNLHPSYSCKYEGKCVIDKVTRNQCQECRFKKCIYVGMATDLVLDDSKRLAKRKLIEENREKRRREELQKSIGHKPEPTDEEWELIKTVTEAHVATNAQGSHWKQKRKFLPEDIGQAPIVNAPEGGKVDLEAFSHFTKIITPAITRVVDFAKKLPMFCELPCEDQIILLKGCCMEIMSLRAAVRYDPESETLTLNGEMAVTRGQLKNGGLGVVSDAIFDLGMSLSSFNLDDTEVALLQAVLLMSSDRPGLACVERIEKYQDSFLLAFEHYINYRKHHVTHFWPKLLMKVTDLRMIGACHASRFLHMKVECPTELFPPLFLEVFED
Kind of test: Yeast two-hybrid alpha-galactosidase reporter assay, BD-VDR interaction with AD-TRβ. Type of test: cell-based. To be noted: assay of example 3. Background: A reporter such as luciferase makes a cellular process visible.
Method: Increase or decrease in alpha-galactosidase activity of AH109 (BD-HRt><AD-IP) strain grown in Leu, Trp, His TDO in the presence of various test compounds is used to screen for agonists or antagonists of BD-HRt><AD-IP interaction. A diverse library of compounds is screened.
Microtiter plates with TDO media seeded with freshly cultured yeast cells at 0.05 optical density at 650 nm (OD650) are treated with various test compounds at 100-400 uM or vehicle (DMSO) control. Stock solutions of test compounds at 10-20 mM are made in DMSO and tested at 100-400 μM final concentration. The final assay mixture comprising of cells, TDO and compound (or DMSO alone) is adjusted to be 100 ul and the amount of DMSO is maintained at or below 2%. The plates are incubated for 3-4 days without shaking at 25° C. Plates are briefly agitated to obtain uniform suspension of cells prior to addition of assay buffer. […] Plates are briefly agitated to obtain uniform suspension of cells and absorbance at both 650 nM (OD650)ref and 410 nm (OD410)ref are measured. […] For color development 100 ul of 0.1 M sodium carbonate solution is added and after standing for at least 1 minute, OD410exp is measured.

Read-outs that look alike come from different tables or passages of the source.

Turning to `O=S(=O)(c1ccccc1)N(CC(F)(F)F)c1ccc(C(O)(C(F)(F)F)C(F)(F)F)cc1` [T0901317], the plasma phospholipid levels result in test [1] and in test [2] was “increased” throughout. For the same compound, the plasma triglyceride levels entry in test [1] and in test [2] was “increased” in each case.
For the compound `C=C1CC[C@H](O)C/C1=C/C=C1\CCC[C@]2(C)[C@@H]([C@H](C)CCCC(C)(C)O)CC[C@@H]12` [25 HC, 25-hydroxy cholecalciferol], the “enhancement of BD-VDR / AD-TRβ interaction” value in test [3] is listed as “approximately 2 fold”.
